Measured values as given in US9175003B2, “Substituted azoanthracene derivatives and intermediates for preparation thereof” (TransTech Pharma, LLC, priority 2009, dated 2015).

Target: human GLP-1 receptor (Homo sapiens (Human), UniProt P43220)
Details: read-out: Mean EC50; cAMP, HTRF detection, 30 min at 37° C., HEK-293 cells expressing cloned human GLP-1 receptor

human GLP-1 receptor, sequence (P43220 24-463): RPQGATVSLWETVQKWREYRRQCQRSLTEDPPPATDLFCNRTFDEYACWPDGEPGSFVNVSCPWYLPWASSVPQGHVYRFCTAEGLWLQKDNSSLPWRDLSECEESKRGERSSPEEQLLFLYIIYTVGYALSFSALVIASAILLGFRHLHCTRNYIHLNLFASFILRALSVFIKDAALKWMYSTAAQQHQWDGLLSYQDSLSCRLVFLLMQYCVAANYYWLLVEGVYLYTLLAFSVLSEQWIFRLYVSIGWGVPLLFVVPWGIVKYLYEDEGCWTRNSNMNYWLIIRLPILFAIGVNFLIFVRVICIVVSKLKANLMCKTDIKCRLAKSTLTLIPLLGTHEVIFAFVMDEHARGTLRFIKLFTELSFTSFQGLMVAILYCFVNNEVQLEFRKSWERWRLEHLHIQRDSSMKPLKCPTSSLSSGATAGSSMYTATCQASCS

Row | Compound | EC50
1 | CCC[C@@H](c1ccccc1)N1Cc2cc3c(cc2C[C@H]1C(=O)N[C@@H](Cc1ccc(-c2ccc(C#N)cc2)cc1)C(=O)O)OC[C@H](c1ccc(OCc2ccc(Cl)c(Cl)c2)cc1)O3 [Example 178, (S)-3-(4′-Cyano-biphenyl-4-yl)-2-{[(3S,8S)-3-[4-(3,4-dichloro-benzyloxy)-phenyl]-7-((S)-1-phenyl-butyl)-2,3,6,7,8,9-hexahydro-[1,4]dioxino[2,3-g]isoquinoline-8-carbonyl]-amino}-propionic acid] | 0.306 µM
2 | Cc1nc(C)c(C(=O)N2Cc3cc4c(cc3C[C@H]2C(=O)N[C@@H](Cc2ccc(-c3ccnc(C)c3C)cc2)C(=O)O)OC[C@H](c2ccc(OCc3ccc(Cl)c(Cl)c3)cc2)O4)o1 [Example 432, (S)-2-{[(3S,8S)-3-[4-(3,4-Dichloro-benzyloxy)-phenyl]-7-(2,4-dimethyl-oxazole-5-carbonyl)-2,3,6,7,8,9-hexahydro-[1,4]dioxino[2,3-g]isoquinoline-8-carbonyl]-amino}-3-[4-(2,3-dimethyl-pyridin-4-yl)-phenyl]-propionic acid] | 0.021 µM
3 | Cc1nc(C(=O)N2Cc3cc4c(cc3C[C@H]2C(=O)N[C@@H](Cc2ccc(-c3ccc(F)cc3)cc2)C(=O)O)OC[C@H](c2ccc(OCc3ccc(Cl)c(Cl)c3)cc2)O4)c(C)o1 [Example 440, (S)-2-{[(3S,8S)-3-[4-(3,4-Dichloro-benzyloxy)-phenyl]-7-(2,5-dimethyl-oxazole-4-carbonyl)-2,3,6,7,8,9-hexahydro-[1,4]dioxino[2,3-g]isoquinoline-8-carbonyl]-amino}-3-(4′-fluoro-biphenyl-4-yl)-propionic acid] | 0.387 µM
4 | CC[C@@H](c1ccccc1)N1Cc2cc3c(cc2C[C@H]1C(=O)N[C@@H](Cc1ccc(-c2ccc(C#N)cc2)cc1)C(=O)O)OC[C@H](c1ccc(OCc2ccc(Cl)c(Cl)c2)cc1)O3 [Example 72, (S)-3-(4′-Cyano-biphenyl-4-yl)-2-{[(3S,8S)-3-[4-(3,4-dichloro-benzyloxy)-phenyl]-7-((S)-1-phenyl-propyl)-2,3,6,7,8,9-hexahydro-[1,4]dioxino[2,3-g]isoquinoline-8-carbonyl]-amino}-propionic acid] | 0.48 µM
5 | Cc1nc(NCC2CCC2)sc1S(=O)(=O)N1Cc2cc3c(cc2C[C@H]1C(=O)N[C@@H](Cc1ccc(-c2ccc(C#N)cc2)cc1)C(=O)O)OCC(c1ccc(OCc2ccc(Cl)c(Cl)c2)cc1)O3 (stereo in doubt) [Example 105, (S)-3-(4′-Cyano-biphenyl-4-yl)-2-({(S)-7-[2-(cyclobutylmethyl-amino)-4-methyl-thiazole-5-sulfonyl]-3-[4-(3,4-dichloro-benzyloxy)-phenyl]-2,3,6,7,8,9-hexahydro-[1,4]dioxino[2,3-g]isoquinoline-8-carbonyl}-amino)-propionic acid] | 0.321 µM
6 | CC[C@@H](c1ccccc1)N1Cc2cc3c(cc2C[C@H]1C(=O)N[C@@H](Cc1ccc(-c2ccnc(C)c2C)cc1)C(=O)O)OC[C@H](c1ccc(OCC2CCCC2)cc1)O3 [Example 160, (S)-2-{[(3S,8S)-3-(4-Cyclopentylmethoxy-phenyl)-7-((S)-1-phenyl-propyl)-2,3,6,7,8,9-hexahydro-[1,4]dioxino[2,3-g]isoquinoline-8-carbonyl]-amino}-3-[4-(2,3-dimethyl-pyridin-4-yl)-phenyl]-propionic acid] | 0.062 µM
